Key:
Phospholipase A2 group V = target: T1, Phospholipase A2 group V (Homo sapiens, UniProt P39877); test: sPLA2-V activity assay; settings: pH 8; 25 °C
T1 sequence (P39877 whole entry): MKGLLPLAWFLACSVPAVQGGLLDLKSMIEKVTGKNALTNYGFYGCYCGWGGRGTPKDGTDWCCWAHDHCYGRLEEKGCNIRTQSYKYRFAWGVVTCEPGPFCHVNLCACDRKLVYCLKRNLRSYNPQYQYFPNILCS
Protocol: Substrate 1,2-bis(heptanoylthio)-glycerophosphocholine and human recombinant PLA2-V were resuspended in assay buffer, and DTNB was dissolved in an aqueous solution of Tris-HCl (pH 8).

Prostaglandin E synthase = target: T2, Prostaglandin E synthase (Homo sapiens, UniProt O14684); test: Microsomal prostaglandin E synthase-1 activity assay; settings: pH 7; 20 °C
T2 sequence (O14684 whole entry): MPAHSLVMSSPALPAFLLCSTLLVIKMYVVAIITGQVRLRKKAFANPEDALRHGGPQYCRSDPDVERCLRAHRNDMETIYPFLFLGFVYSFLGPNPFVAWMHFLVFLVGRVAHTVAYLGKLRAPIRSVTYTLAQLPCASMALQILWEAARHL
Protocol: The assay buffer contained 100 mM KHPO4 (pH 7.0), 2 mM EDTA and 2.5 mM reduced GSH. 100 µL of reaction buffer containing human recombinant mPGES-1 was added to 96-well non-binding plate, followed by the addition of test samples to their respective wells. The reaction mixture was incubated for 30 min at 20 °C. […] The reaction was quenched by adding 20 µL of SnCl2 solution in 1 N HCl.

[1] = target: T3, Prostaglandin G/H synthase 1 (Ovis aries, UniProt P05979); test: Cyclooxygenase activity assay; settings: pH 8; 37 °C
T3 sequence (P05979 whole entry): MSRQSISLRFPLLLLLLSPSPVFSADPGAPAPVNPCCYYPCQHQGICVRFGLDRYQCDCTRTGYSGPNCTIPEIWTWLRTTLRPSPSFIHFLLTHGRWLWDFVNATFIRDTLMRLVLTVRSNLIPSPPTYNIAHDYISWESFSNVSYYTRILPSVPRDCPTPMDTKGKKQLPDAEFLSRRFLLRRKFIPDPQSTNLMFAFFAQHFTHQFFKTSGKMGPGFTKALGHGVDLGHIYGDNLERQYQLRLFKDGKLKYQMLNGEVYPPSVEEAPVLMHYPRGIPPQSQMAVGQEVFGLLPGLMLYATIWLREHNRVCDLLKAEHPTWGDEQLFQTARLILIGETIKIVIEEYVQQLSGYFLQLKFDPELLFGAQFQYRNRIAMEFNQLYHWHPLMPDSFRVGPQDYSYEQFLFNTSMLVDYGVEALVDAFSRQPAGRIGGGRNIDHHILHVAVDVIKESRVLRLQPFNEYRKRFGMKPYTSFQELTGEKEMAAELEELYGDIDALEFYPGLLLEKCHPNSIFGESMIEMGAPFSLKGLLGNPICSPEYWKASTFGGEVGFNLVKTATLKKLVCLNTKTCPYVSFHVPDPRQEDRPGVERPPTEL
Protocol: (§1) Reaction mixture containing 100 mM Tris-HCl buffer (pH 8) and COX-1 (ovine) or COX-2 (human recombinant) was preincubated for 10 min in a water bath at 37 °C. The reaction was initiated by the addition of 10 µL arachidonic acid (final concentration 100 µM). After 2 min, the reaction was terminated by adding 1 M HCl. Test compounds were dissolved in DMSO and diluted to the desired concentration with potassium phosphate buffer of pH 7.4.

Lipoxygenase = target: T4, Lipoxygenase (Glycine max, UniProt Q43440); test: Lipo-oxygenase activity assay; settings: pH 7; 25 °C
T4 sequence (Q43440 whole entry): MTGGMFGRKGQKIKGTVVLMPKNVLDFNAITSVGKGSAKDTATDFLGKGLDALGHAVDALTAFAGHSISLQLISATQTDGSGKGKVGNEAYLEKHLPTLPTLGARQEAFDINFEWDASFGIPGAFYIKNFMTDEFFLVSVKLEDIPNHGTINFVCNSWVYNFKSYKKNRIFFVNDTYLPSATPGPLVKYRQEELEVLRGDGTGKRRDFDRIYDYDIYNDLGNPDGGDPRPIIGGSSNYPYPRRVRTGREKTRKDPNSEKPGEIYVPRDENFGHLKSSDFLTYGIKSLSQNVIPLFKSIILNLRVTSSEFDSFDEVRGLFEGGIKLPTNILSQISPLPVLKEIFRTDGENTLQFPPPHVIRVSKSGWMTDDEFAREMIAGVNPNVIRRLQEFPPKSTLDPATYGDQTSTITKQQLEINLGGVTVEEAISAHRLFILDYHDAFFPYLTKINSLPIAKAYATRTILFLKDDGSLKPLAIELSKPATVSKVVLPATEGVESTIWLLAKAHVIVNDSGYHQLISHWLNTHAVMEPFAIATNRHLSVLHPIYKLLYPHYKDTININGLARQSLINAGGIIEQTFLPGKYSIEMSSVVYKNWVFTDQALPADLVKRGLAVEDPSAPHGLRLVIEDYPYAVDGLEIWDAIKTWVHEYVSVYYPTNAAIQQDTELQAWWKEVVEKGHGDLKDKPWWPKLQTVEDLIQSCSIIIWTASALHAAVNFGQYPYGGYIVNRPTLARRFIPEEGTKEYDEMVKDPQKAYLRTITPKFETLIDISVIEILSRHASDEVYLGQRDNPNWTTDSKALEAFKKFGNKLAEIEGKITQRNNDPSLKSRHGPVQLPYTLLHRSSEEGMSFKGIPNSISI
Protocol: The assay was progressed in 96-well microliter plates containing substrate, soybean LOX enzyme, and respective test substance at room temperature in a 0.1 M Tris-HCl buffer solution at pH 7. The reaction was initiated by the addition of substrate solution to all wells and incubated for 5 min, followed by the addition of 100 µL of chromogen solution to all wells to stop enzyme catalysis and incubated for 5 min. The absorbance was measured at 490 nm. Dimethyl sulphoxide served as a negative control.

[2] = target: T5, Prostaglandin G/H synthase 2 (Homo sapiens, UniProt P35354); test: Cyclooxygenase activity assay; settings: pH 8; 37 °C
T5 sequence (P35354 whole entry): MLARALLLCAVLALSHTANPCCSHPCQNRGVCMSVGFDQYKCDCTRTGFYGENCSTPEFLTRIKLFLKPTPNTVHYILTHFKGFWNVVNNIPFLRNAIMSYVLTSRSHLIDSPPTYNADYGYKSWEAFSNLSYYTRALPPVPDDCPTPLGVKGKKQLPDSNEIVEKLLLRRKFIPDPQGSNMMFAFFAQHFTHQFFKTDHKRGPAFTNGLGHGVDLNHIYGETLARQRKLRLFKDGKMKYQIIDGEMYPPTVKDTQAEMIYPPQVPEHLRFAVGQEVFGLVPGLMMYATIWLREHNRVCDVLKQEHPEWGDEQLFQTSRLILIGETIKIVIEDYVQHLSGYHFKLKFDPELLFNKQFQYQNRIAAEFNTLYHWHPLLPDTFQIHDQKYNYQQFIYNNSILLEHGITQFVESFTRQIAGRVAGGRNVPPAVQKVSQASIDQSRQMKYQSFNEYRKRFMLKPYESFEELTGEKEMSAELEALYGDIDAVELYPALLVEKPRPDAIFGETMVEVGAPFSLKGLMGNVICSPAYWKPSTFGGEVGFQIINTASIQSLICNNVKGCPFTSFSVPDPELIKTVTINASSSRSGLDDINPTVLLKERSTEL
Protocol: as §1

SMILES	IC50 (Phospholipase A2 group V) [µM]	IC50 (Prostaglandin E synthase) [µM]	IC50 [1] [µM]	IC50 (Lipoxygenase) [µM]	IC50 [2] [µM]
CC(C)(C)c1ccc(/C=C/C(=O)/C=C/c2ccc(C(C)(C)C)cc2)cc1	51.9	37	53.2		
CCN(CC)c1ccc(/C=C2\CC/C(=C\c3ccc(N(CC)CC)cc3)C2=O)cc1 [2,5-Bis(4-diethylaminobenzylidene)cyclopentanone (17)]	10.2	5.48	32	56.8	
COc1cccc(/C=C2\CCC/C(=C\c3cccc(OC)c3OC)C2=O)c1OC [2,6-Bis(2,3-dimethoxybenzylidene)cyclohexanone (3)]	11	7.34	33.3	47.8	53.2
CCN(CC)c1ccc(/C=C2\CCC/C(=C\c3ccc(N(CC)CC)cc3)C2=O)cc1 [2,6-Bis(4-diethyl-aminobenzylidene)cyclohexanone (5)]	12.1	2.41	38.5		
CCN(CC)c1ccc(/C=C/C(=O)/C=C/c2ccc(N(CC)CC)cc2)cc1 [(1E,4E)‐1,5‐bis[4‐(diethylamino)phenyl]penta‐1,4‐ dien‐3‐one (11)]	16.1	6.98	37.7	95.1	94.9
COc1cc(C=CC(=O)CC(=O)C=Cc2ccc(O)c(OC)c2)ccc1O [(1E,6E)-1,7-bis(4-hydroxy-3-methoxyphenyl)hepta-1,6-diene-3,5-dione]		4.88	31.3	57.8	
COc1cccc(/C=C/C(=O)/C=C/c2cccc(OC)c2OC)c1OC [(1Z,4Z)–1-5-Bis[2,3(dimethoxy)phenyl]-1,4-pentadien-3-one (9)]	10.4	14.8	41.5	62.9	70.7
CC(C=C1CCC(=CC(C)c2ccccc2)C1=O)c1ccccc1 (stereo not drawn) [(2E,5E)‐2,5‐bis(2‐phenylpropylidene)cyclopentan‐1‐ one (16)]		7.48	320		
COc1cccc(/C=C2\CC/C(=C\c3cccc(OC)c3OC)C2=O)c1OC [(2E,5E)‐2,5‐bis[(2,3‐ dimethoxyphenyl)methylidene]cyclopentan‐1‐one (15)]	16.4	10.4	40.2	63.8	
CC(C)(C)c1ccc(/C=C2\CC/C(=C\c3ccc(C(C)(C)C)cc3)C2=O)cc1 [(2E,5E)‐2,5‐bis[(4‐tert‐butyl‐2‐ methylphenyl)methylidene]cyclopentan‐1‐one (14)]	83.2	24.5	60		
CC(C=C1CCCC(=CC(C)c2ccccc2)C1=O)c1ccccc1 (stereo not drawn) [(2E,6E)‐2,6‐bis(2‐phenylpropylidene)cyclohexan‐1‐ one (4)]	94.7	20.3	194		
CC(C)(C)c1ccc(/C=C2\CCC/C(=C\c3ccc(C(C)(C)C)cc3)C2=O)cc1 [(2E,6E)‐2,6‐bis[(4‐tert‐ butylphenyl)methylidene]cyclohexan‐1‐one (2)]	53.3	8.95	43.2		
CC(C=CC(=O)C=CC(C)c1ccccc1)c1ccccc1 (stereo not drawn) [(3E,6E)‐2,8‐diphenylnona‐3,6‐dien‐5‐one (10)]	125	60.7	195		
CC(Cc1ccc(O)c(O)c1)C(C)Cc1ccc(O)c(O)c1 (stereo not drawn) [LOX inhibitor, N/A]				9.23	
C[C@@H]1C[C@H]2[C@@H]3CCC4=CC(=O)C=C[C@]4(C)[C@@]3(F)[C@@H](O)C[C@]2(C)[C@@]1(O)C(=O)CO [dexamethasone (tetramethyl-rhodamine conjugated )]	0.61				
